# Measured values reported in paper PMC9975698, “Hyperoside alleviates toxicity of β-amyloid via endoplasmic reticulum-mitochondrial calcium signal transduction cascade in APP/PS1 double transgenic Alzheimer's disease mice” (Redox Biology, 2023).
# Columns and labels:
# [1] = tested on: Aβ oligomers, Aβ fibrils, Aβ (1–16); assay: Dot blot of Aβ forms in HT22 cells; assay type: cell-based
# Protocol: 4 μL of prepared cell or animal sample protein solutions were dotted for adsorption onto methanol-pre-activated PVDF membranes and then blocked with 5% non-fat dry milk in Tris-buffered saline and Tween 20 for 1 h. The samples were incubated overnight at 4 °C with anti-amyloid fibril primary antibody [mOC87] (Abcam, MA, USA), anti-amyloid oligomer A11 (Invitrogen, CA, USA) or purified anti-β-amyloid (1–16) antibody (clone 6E10) (Biolegend, CA, USA) (1:1000), followed by HRP-conjugated secondary antibody. Protein bands were detected using Super Signal Sensitive ECL Western Blotting Detection Reagent (Beyotime, Beijing, China) and observed using a gel imaging device (Amersham Imager 800, GE, Tokyo, Japan).
# Solubility in water = assay type: physicochemical
# HT22 cells [2] = assay: Western blot of Bcl-2, Bax and cyto-c in HT22 cells; assay type: cell-based; details: HT22 cells co-treated with Aβ aggregates 30 μM and HYP, 24 h
# Protocol: After HYP treatment, the cells were lysed with RIPA. Protein concentrations were determined by Bio-Rad protein assay (Bio-Rad Laboratories, CA, USA). After electrophoretic separation, the gels were blotted and stained with primary antibodies. Binding of antibodies was visualized with peroxidase-coupled secondary antibodies using ECL Western Blotting detection reagents (Invitrogen, Scotland, UK). Band intensities were quantified using ImageJ software. Data were obtained from three independent experiments.
# Aβ aggregates = molecular target: T1, Aβ aggregates (Homo sapiens, UniProt P05067); assay: Biolayer interferometry (BLI) analysis; assay type: binding
# T1 construct: purchased DGpeptites, Hangzhou, CHINA
# T1 sequence (P05067 672-713 limits assumed): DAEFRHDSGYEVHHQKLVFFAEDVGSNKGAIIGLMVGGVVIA
# Protocol: 200 μL of solution containing 200 μg of the Aβ peptide was incubated at 37 °C for 5 days. EZ-Link NHS-LC-LC-Biotin (Thermo Scientific, USA) was dissolved in DMSO to a concentration of 10 mM. Aβ aggregates was biotinylated in a 1:0.5 M ratio of biotin reagent and incubated for 30 min at room temperature before being added to a 96-well plate (Greiner Bio-One, PN:655,209). Biotinylation was ascertained by loading the mixture onto super streptavidin (SSA) capacity tips (ForteìBIO, CA, USA) and detected by the FortéBIO Octet Red instrument. Additionally, SSA biosensors were pre-wetted with PBS for the recording of baselines. Successful biotinylated Aβ aggregates solution was collected and immobilized onto SSA tips overnight at 4 °C. HYP dissolved in DMSO was diluted to an appropriate concentration with PBS to a final 200 μL/well volume. Control wells were added with an equal amount of DMSO. All experiments consisted of repeated cycles of four significant steps: wash (300 s), baseline (120 s), association (120 s), and dissociation (120 s). The association, dissociation plot, and kinetic constants were analyzed with ForteìBIO data analysis software.
# HT22 cells [3] = assay: Cell membrane permeability assay (intracellular HYP by LC-MS/MS); assay type: in vitro ADME; details: HYP 20–80 μM, 24 h
# Protocol: HT22 cells were co-treated with Aβ aggregates and HYP (20–80 μM) for 24 h and washed with PBS for 3 times. The cell membrane was disrupted with 200 μL methanol for the collection and centrifugation of cellular content at 20,000 rpm for 10 min. The supernatant was then collected for LC-MS/MS analysis. HYP content was quantified using UHPLC-MS/MS system, which includes Agilent 1290 Infinity UHPLC, and Agilent 6460 Triple Quadrupole, equipped with an electrospray ionization interface used to generate positive ions for the determination of HYP. The compounds were analyzed by using the Agilent Zorbax Eclipse Plus C-18 column with a particle size of […] (flow rate: 0.35 mL/min). The mobile phase was set as follows: mobile phase A (0.1% formic acid in water) and mobile phase B (0.1% formic acid in ACN): 0–3 min, 10–30% B; 3–4 min, 70% B; 4–5 min, 30–70% B; 5–6 min, 70-10% B. The column and auto-sampler temperature were maintained at 30 °C and 4 °C, respectively. Data were analyzed by using Agilent MassHunter Workstation software B.01.03. The gas temperature was set at 300 °C with a flow rate of 11 L/min. Gases were set at 30 psi for the nebulizer, capillary, at 4000 V. For the HYP, the fragment was 170. The collision energy was set at 30; The mass transitions were as follows based on multiple reaction monitoring: m/z 464.38 → 299.9. For the Isorhamnetin (ISO), the fragment was 150. […]
# APP/PS1 mice = assay: Y-maze test; assay type: in vivo; details: HYP 20/40/80 mg/kg nasal, every 3 days, after 7 weeks
# Protocol: All animal care and experimental procedures were performed in accordance with the “Institutional Animal Care and User Committee Guidelines” of the Macau University of Science and Technology. APP/PSEN1 (APP/PS1) mice (N000175) were purchased from the Nanjing Institute of Biomedical Sciences, Nanjing University, China, weighing 25 ± 5 g. The animals were housed in a temperature-controlled room with a 12 h light/dark cycle and given ad libitum food and water. Male mice were randomly divided into the following 6 experimental groups. (a) wild-type group (n = 6), (b) APP/PS1 group (n = 6), (c) HYP (20 mg/kg group) (n = 7), (d) HYP (40 mg/kg) group (n = 8), (e) HYP (80 mg/kg) group (n = 8) and (f) memantine (MEM) (10 mg/kg) positive control group (n = 8). HYP was dissolved in the solvent containing 10% DMSO, 40% PEG300 and 5% Tween-80 in PBS, and administrated via nasal injection for every 3 days with a volume of 0.5 μL/g of body weight for 8 consecutive weeks. Y-maze tests assess cognitive changes, short-term spatial working memory (by spontaneous alternation), and exploratory activity (by total number of arm choices) of mice. […] The number of total arm choices and sequence of arm choices were recorded. The percentage of alternation can be calculated as the ratio of total number of alternations / the number of arms entered x 100%. […]
smiles,measurement,setting,value
"O=c1c(O[C@@H]2O[C@H](CO)[C@H](O)[C@H](O)[C@H]2O)c(-c2ccc(O)c(O)c2)oc2cc(O)cc(O)c12 [HYP, Quercetin-3-O-β-D-galactopyranoside]",level of different form of Aβ,[1]; HT22 cells incubated with exogenous Aβ for 24 h,lowered the level of different form of Aβ
same,"endogenous level of Aβ oligomers, Aβ fibrils and total Aβ (1–16)",[1]; HT22 cells without exogenous Aβ,"lowered the endogenous level of Aβ Oligomers (A11), Aβ Fibrils (mOC87) and total Aβ (1–16) (6E10)"
same,solubility in water,Solubility in water,insoluble in water
same,ratio of Bax / Bcl-2 and level of cyto-c,HT22 cells [2],ratio of Bax / Bcl-2 was decreased with the reduction in the level of cyto-c
same,Kids,"Aβ aggregates; Fig. 1G, dissociation rate constant",0.0343 s⁻¹
same,Kd,"Aβ aggregates; HYP 6.25–200 μM, biotinylated Aβ aggregate",14.5 µM
same,intracellular level of HYP,HT22 cells [3],increased upon the escalating concentration of HYP
same,spatial working memory (Y-maze alternation),APP/PS1 mice,resumed to a level comparable to WT mice group
